We go through 14 compounds from PubChem BioAssay AID2060888 (Molecular Pharmacology Branch, DTP, NCI, 2025).

This test deals with 695427-040-R-J1-PDC complex spheroid viability. Description: Anticancer human tumor 695427-040-R-J1-PDC patient-derived colon adenocarcinoma cell line growth inhibition [RAS]. To be noted: for viability, T/C: stronger effect = lower value. The source says: RAS pathway inhibitors in Combinations in Complex Spheroids
A high-throughput screen of multi-cell type tumor spheroids was designed to identify active combinations of RAS pathway inhibitors and targeted small molecules. Complex spheroids include a stromal component modeled by human endothelial cells (HUVEC) and fibroblasts modeled by human mesenchymal stem cells (MSCs). The concentration ranges selected for each drug and investigational agent were based upon clinically achievable concentrations if the clinical Cmax of the agent was known.
Compounds. The drugs and investigational agents: abemaciclib (NSC768073), cobimetinib (NSC768068), divarasib (GDC6063, NSC841802), docetaxel (NSC628503), GDC-1971 (RLY-1971, NSC841576), gemcitabine (NSC613327), inavolisib (NSC800729), ipatasertib (NSC767898), KB-0742 (NSC834161), MRTX-1133 (NSC836407), osimertinib (NSC779217), RMC-4630 (NSC839698), RMC-6236 (NSC851965), RMC-6291 (NSC852671), Ro-3306 (NSC812927), sapanisertib (NSC764658), SN-38 (NSC673596), staurosporine (NSC755774), SY5609 (NSC837396), and tovorafenib (DAY101, NSC766906), were obtained from the National Cancer Institute (NCI) Developmental Therapeutics Program Chemical Repository. The FDA-approved anticancer drug set is available from the NCI Developmental Therapeutics Program. […] The stock solutions were prepared in dimethyl sulfoxide (DMSO, Sigma-Aldrich, St. Louis, MO, cat. D2650) at 800-fold the tested concentration and stored at -70 degrees C prior to their use. All drugs and investigational agents were tested over a range starting from a high concentration at or near the clinical Cmax and decreasing in half-log increments. If the clinical Cmax for an agent had not been determined, the highest concentration tested was 10 microM.
Cell Culture. All cells were maintained in an incubator at 37 degrees C and 5% CO2 with 95% humidity. The PDC lines were cultured according to standard operating procedures established by the NCI PDMR. All PDCs were thawed and cultured in Matrigel-coated flasks prepared with a working solution of 1X Ham's F-12 nutrient mix, without supplementation (Invitrogen, Waltham, MA, cat. 11765054), 100 U/mL penicillin-streptomycin (Invitrogen, cat. 15140122), and 2.5% Matrigel (Corning Inc., Corning, NY, cat. 354248) for the first three passages. The 362531-283-R-J2-PDC and 782815-120-R-J1-PDC lines were cultured in 6C/Colon 1B media, which includes advanced DMEM/F-12 (Thermo Fisher Scientific, cat. 12634028), 10 mM HEPES (Thermo Fisher Scientific, cat. 15630080), 1X GlutaMAX supplement (Thermo Fisher Scientific, cat. 35050061), 0.1 mg/mL primocin (InvivoGen, San Diego, CA, cat. ant-pm-2), 10% defined fetal bovine serum, heat inactivated (HyClone Laboratories Inc., Logan, UT, cat. SH30070.03HI), 50% L-WRN conditioned media (ATCC, cat. CRL-3276), 1.25 mM N-Acetyl-L-cysteine (Sigma-Aldrich, cat. A9165), 10 mM nicotinamide (Sigma-Aldrich, cat. N0636), 1X B-27 supplement (Thermo Fisher Scientific, cat. 17504044), 1X N-2 supplement (Thermo Fisher Scientific, cat. 17502048), 50 ng/mL human EGF (Thermo Fisher Scientific, cat. PHG0311), and 10 microM Y-27632 dihydrochloride (Tocris Bioscience, cat. 1254). The K12877-001-R-J1-PDC line was cultured in 6I media, which includes all 6C/Colon 1B media plus 10 ng/mL human FGF-10 (PeproTech, cat. 100-26), 1 ng/mL human FGF-2 (PeproTech, cat. 100-18B), 1 µM prostaglandin E2 (Tocris Bioscience, cat. 2296), […] hydrocortisone (Sigma-Aldrich, cat. H4001), and […] bovine insulin (Sigma-Aldrich, cat. I6634). The K86415-001-R-J1-PDC line was cultured in 6D media, which includes all 6C/Colon 1B media components minus the L-WRN conditioned media. The 485176-168-R4-J1-PDC was cultured in PANC media, which includes all 6C/Colon 1B media plus 100 ng/mL human FGF-10 (PeproTech, cat. 100-26), 500 nM SB-431542 (Selleckchem, cat. S1067), and 10 nM gastrin (Tocris Bioscience, cat. 3006). […]

[1] abbreviates: compound alone, run of 06/10/2024.

The structures appear in SMILES notation. “And” between values parts separate entries of the source, which are not always exact repeats. Identical values can stand only once.
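Further: viability read after seven days of drug exposure.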
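Wherever viability, T/C is given: 100% = DMSO vehicle control viability.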

Regarding `C#Cc1c(F)ccc2cc(O)cc(-c3ncc4c(N5CC6CCC(C5)N6)nc(OCC56CCCN5CC(F)C6)nc4c3F)c12` (configuration not stated), the viability, T/C is 99.3% [middle of 8 runs] (compound 0.0316 µM); 95.3% [middle of 8 runs] (compound 0.1 µM); 89.5% [middle of 8 runs] (compound 0.316 µM); 73.6% [middle of 8 runs] (compound 1 µM); 62.1% [middle of 8 runs] (compound 3.16 µM); 42.7% [middle of 8 runs] (compound 10 µM). Further, under setting [1], the half-inhibitory concentration (IC50) was 6.3 µM [middle of 8 runs].
For `C=CC(=O)N1CCN(c2nc(OCC3CCCN3C)nc3c(F)c(-c4nc(N)cc(C)c4C(F)(F)F)c(Cl)cc23)C(C)C1` (configuration not stated), the viability, T/C runs as follows: (compound 0.00316 µM) 97.3% [middle of 12 runs]; (compound 0.0316 µM) 100% [middle of 12 runs]; (compound 0.1 µM) 102% [middle of 12 runs]. In addition, the IC50 is, setting by setting: under setting [1], over 1000 nM; (curve of compound) over 1000 nM.
For `C=CC(=O)Nc1cc(Nc2nccc(-c3cn(C)c4ccccc34)n2)c(OC)cc1N(C)CCN(C)C`, the viability, T/C is 96.4% [middle of 4 runs] (compound 0.00316 µM); 92% [middle of 4 runs] (compound 0.01 µM); 83.7% [middle of 4 runs] (compound 0.0316 µM); 79.4% [middle of 4 runs] (compound 0.1 µM); 63.1% [middle of 4 runs] (compound 0.316 µM); 40.1% [middle of 4 runs] (compound 1 µM). Further, for the setting “curve of compound”, the concentration for half-maximal inhibition (IC50) was 597 nM [middle of 4 runs].
For the compound `CC(C)NCC(C(=O)N1CCN(c2ncnc3c2C(C)CC3O)CC1)c1ccc(Cl)cc1` (configuration not stated), the viability, T/C is 102% [middle of 4 runs] (compound 0.0316 µM), 96.3% [middle of 4 runs] (compound 0.316 µM) and 88.8% [middle of 4 runs] (compound 1 µM). For the same compound, for the setting “curve of compound”, the 50% inhibitory concentration (IC50) was > 10000 nM and 10000 nM.
With `CC(C)n1nc(-c2ccc3oc(N)nc3c2)c2c(N)ncnc21`, the viability, T/C reads like this: (compound 0.000316 µM) 101% [middle of 4 runs]; (compound 0.001 µM) 99.3% [middle of 4 runs]; (compound 0.00316 µM) 91.7% [middle of 4 runs]; (compound 0.01 µM) 81.6% [middle of 4 runs]; (compound 0.0316 µM) 73.5% [middle of 4 runs]; (compound 0.1 µM) 61.9% [middle of 4 runs]. The IC50 (curve of compound) was > 100 nM and 59.9 nM.
As to `CC(Nc1ccc2c(c1)OCCn1cc(N3C(=O)OCC3C(F)F)nc1-2)C(N)=O` (configuration not stated), the viability, T/C is 89.9% [middle of 4 runs] (compound 0.0316 µM), 72.5% [middle of 4 runs] (compound 0.1 µM), 73.7% [middle of 4 runs] (compound 0.316 µM) and 41.9% [middle of 4 runs] (compound 10 µM).
Consider `CC1(C)CCC(Nc2ncc(C(F)(F)F)c(-c3c[nH]c4c(P(C)(C)=O)c(C#N)ccc34)n2)CN1` (configuration not stated), for which the viability, T/C is, setting by setting: (compound 0.000949 µM) 95.8% [middle of 4 runs]; (compound 0.003 µM) 89.1% [middle of 4 runs]; (compound 0.00949 µM) 92.5% and 92.7% and 87.3% (2×); (compound 0.03 µM) 87.3% [middle of 4 runs]; (compound 0.0949 µM) 87.8% [middle of 4 runs]; (compound 0.3 µM) 76.5% [middle of 4 runs]. Further, the IC50 (curve of compound) is over 300 nM.
For the compound `CCN1CCN(Cc2ccc(Nc3ncc(F)c(-c4cc(F)c5nc(C)n(C(C)C)c5c4)n3)nc2)CC1`, the viability, T/C was 102% [middle of 4 runs] (compound 0.00316 µM); 84.3% [middle of 4 runs] (compound 0.01 µM); 92.2% [middle of 4 runs] (compound 0.0316 µM); 102% [middle of 4 runs] (compound 0.1 µM); 98.7% [middle of 4 runs] (compound 0.316 µM). Besides, the IC50 (curve of compound) is over 1000 nM.
In the case of `CCc1c2c(nc3ccc(O)cc13)-c1cc3c(c(=O)n1C2)COC(=O)[C@]3(O)CC`, the viability, T/C is 91.9% [middle of 4 runs] (compound 0.000949 µM); 96.8% [middle of 4 runs] (compound 0.003 µM); 86.8% [middle of 4 runs] (compound 0.00949 µM); 73.4% [middle of 4 runs] (compound 0.03 µM); 52.8% [middle of 4 runs] (compound 0.0949 µM); 34.5% [middle of 4 runs] (compound 0.3 µM). Moreover, for the setting “curve of compound”, the IC50 is 114 nM [middle of 4 runs].
With `CCn1c(-c2cc(N3CCN(C)CC3)cnc2C(C)OC)c2c3cc(ccc31)-c1csc(n1)CC(NC(=O)C1CC1C)C(=O)N1CCCC(N1)C(=O)OCC(C)(C)C2` (configuration not stated), the viability, T/C (compound 0.003 µM) was 92.1% [middle of 8 runs]; the viability, T/C (compound 0.00949 µM) was 78.3% [middle of 8 runs]; the viability, T/C (compound 0.03 µM) was 60.2% [middle of 8 runs]; the viability, T/C (compound 0.0949 µM) was 51.3% [middle of 8 runs]; the viability, T/C (compound 0.3 µM) is 43% [middle of 8 runs].
Take `CCn1c(-c2cccnc2C(C)OC)c2c3cc(ccc31)N1CCOC(CC(NC(=O)C(C(C)C)N(C)C(=O)C3(F)CCN(C(=O)C#CC(C)(C)N(C)C)CC3)C(=O)N3CCCC(N3)C(=O)OCC(C)(C)C2)C1` (configuration not stated): the viability, T/C was 94% [middle of 8 runs] (compound 0.000949 µM), 95.8% [middle of 8 runs] (compound 0.03 µM) and 102% [middle of 8 runs] (compound 0.0949 µM). Moreover, the IC50 (compound alone, run of 05/20/2024) is over 300 nM.
Consider `C[C@@H](NC(=O)c1ncnc(N)c1Cl)c1ncc(C(=O)Nc2cc(C(F)(F)F)c(Cl)cn2)s1`, for which the viability, T/C was 105% [middle of 4 runs] (compound 0.0316 µM); 108% [middle of 4 runs] (compound 0.1 µM); 115% and 99.1% and 103% (2×) (compound 0.316 µM); 113% [middle of 4 runs] (compound 1 µM); 99.6% [middle of 4 runs] (compound 3.16 µM); 73.2% (2×) and 69.3% and 73.6% (compound 10 µM). In addition, the IC50 (curve of compound) was over 10000 nM.
Take `Nc1ccn(C2OC(CO)C(O)C2(F)F)c(=O)n1` (configuration not stated): the viability, T/C was 92.8% [middle of 4 runs] (compound 0.00316 µM); 78.1% [middle of 4 runs] (compound 0.0316 µM); 78.2% [middle of 4 runs] (compound 0.1 µM); 72% [middle of 4 runs] (compound 0.316 µM); 65% [middle of 4 runs] (compound 1 µM). Besides, the concentration for half-maximal inhibition (IC50) (curve of compound) was over 1000 nM.
Turning to `O=C(c1ccc(F)c(F)c1Nc1ccc(I)cc1F)N1CC(O)([C@@H]2CCCCN2)C1`, the viability, T/C runs as follows: (compound 0.00316 µM) 96.2% [middle of 4 runs]; (compound 0.0316 µM) 63.3% [middle of 4 runs]; (compound 0.1 µM) 50.1% [middle of 4 runs]; (compound 0.316 µM) 23.3% [middle of 4 runs]; (compound 1 µM) 6.95% [middle of 4 runs]. The IC50 (curve of compound) was 77.1 nM [middle of 4 runs].
